Laboratory results: PMC12606464, “Investigating NFE2L1 activators for targeted protein aggregate clearance: a follow-up study” (RSC Medicinal Chemistry, 2025)
Read-outs that look alike come from different tables or passages of the source.

What was measured:
[1] = tested on: SNCA-EGFP; assay: SNCA-EGFP degradation in SH-SY5Y cells; format: cell-based, human
Method: This reporter is prone to aggregation because of its slow protein turnover. To assess compound efficacy, we measured the fluorescence signal of GFP-tagged synuclein within aggregates.
The GFP fluorescence signal was then normalized to that of the DMSO control and the cell number. The experiment was performed in at least five biological replicates. Statistical analysis was performed using paired t-tests with Holm–Šídák correction for multiple comparisons (α = […]
SH-SY5Y cells stably expressing SNCA-EGFP were seeded on a plate and allowed to […]
tadalafil (5 µM), or RUN compounds at a concentration of 1 µM or treated with an equivalent volume of DMSO dissolved in buffer as a vehicle control. The treatment was performed for 16 hours and then fluorescence was measured. The GFP signal intensity was normalized to both the DMSO control and the cell count.

[2] = tested on: reactive oxygen species; assay: DCFH-DA oxidative stress detection; format: cell-based; details: DCFH-DA assay, Figure S8
Method: 2.10 Oxidative stress detection
Cells were cultured in 96-well plates and washed with prewarmed HBSS buffer. A solution of 2',7'-dichlorofluorescein-diacetate (DCFH-DA) (100 μM) was added to the cells, followed by 30 minutes of incubation. […]
dissolved in HBSS buffer for an additional 2 hours. Control cells received vehicle (DMSO), or […]

[3] = tested on: IRE1/XBP1s; assay: XBP1 endoplasmic reticulum stress reporter assay (CMV-XBP-GLuc); format: cell-based, human; details: Figure S5; for Mean diff, MG132 vs. RUN compound (log2-transformed values) / Mean diff, DMSO vs. treatment (log2-transformed values): Dunnett's multiple comparisons test; for Mean 2 (mean of log2-transformed values, treatment; DMSO = 0): N = 3
From the text: Next, we investigated whether the selected RUN compounds activate the NFE2L1 transcriptional program without triggering the unfolded protein response (UPR), a crucial cellular process induced by the accumulation of unfolded proteins in the endoplasmic reticulum (ER), potentially leading to ER stress. To monitor this, an alternative reporter was used to assess the activation of IRE1/XBP1s.[47] IRE1 is a bifunctional serine/threonine kinase and endoribonuclease embedded in the ER membrane, playing a central role in UPR signaling. Its RNase activity facilitates the splicing of X-box binding protein 1 (XBP1) mRNA. The spliced XBP1 acts as a transcription factor, promoting the re-establishment of ER homeostasis by upregulating genes involved in the ER-associated degradation (ERAD) pathway.[48–50] The reporter contains Gaussia luciferase positioned out of frame downstream of the XBP1 splice site, ensuring that active luciferase translation occurs only in the presence of ER stress.[51,52] Cells transfected with this reporter were treated with RUN compounds at 1, 5, and 10 μM, and luciferase activity was measured.
Figure S5: Impact of RUN compounds on ER stress-induced activation of the XBP1 reporter.
HEK293 cells were transfected with the CMV-XBP-GLuc reporter plasmid and allowed to stabilize overnight. Following stabilization, the cells were treated with MG132 or various concentrations of the test compounds (1, 2, 3, 5, 7.5, and 10 µM) for 16 hours. The Gaussia luciferase signal, which reflects XBP1 mRNA splicing, was adjusted based on cell viability as measured by the alamarBlue assay. Data are represented as Geomean ± GeoSD of three independent experiments ( n = 3. Statistical comparison of MG132 and RUN compounds vs DMSO and RUN compounds vs MG132 was performed on log2-transformed values using two-way repeated-measures ANOVA with Geisser –Greenhouse correction, followed by Dunnett’s multiple comparisons test with individual variances computed for each comparison. Results of the analysis are shown in Supplementary Table S15. […]
GraphPad Prism (v 10.6.1).
2.8 XBP1-endoplasmic reticulum (ER) stress reporter assay
HEK293 cells were seeded in 6-well plates and incubated for 24 hours before being transfected with a plasmid containing the CMV-XBP-Gluc reporter using Lipofectamine 2000.(4) After 6 hours, the transfected cells were subsequently transferred to 384-well plates, stabilized overnight, and treated with the proteasome inhibitor and ER stress inducer MG132 and/or various concentrations of RUN compounds (1, 5, and 10 µM) or vehicle (DMSO) for 16 hours. Luciferase activity was normalized to cell viability, which was assessed using the alamarBlue assay. The results are expressed as the fold change compared with the DMSO control, with the experiment conducted in biological triplicate. […]

[4] = SH-SY5Y, SNCA-EGFP degron, Figure S7

Compound	Geometric mean of ratios (paired t tests, Treatment vs Control = 100) [1, 4]	Geometric mean, Treatment (Control = 100) [1, 4]	Geometric mean, Treatment (Control = 1) ([2]; 5 μM)	Geometric mean, Treatment (Control = 1) ([2]; 25 μM)	Mean diff, MG132 vs. RUN compound (log2-transformed values) ([3]; 1 µM)	Mean 2 (mean of log2-transformed values, treatment; DMSO = 0) ([3]; 1 µM)	Mean diff, MG132 vs. RUN compound (log2-transformed values) ([3]; 5 µM)	Mean 2 (mean of log2-transformed values, treatment; DMSO = 0) ([3]; 5 µM)	Mean diff, MG132 vs. RUN compound (log2-transformed values) ([3]; 10 uM)	Mean 2 (mean of log2-transformed values, treatment; DMSO = 0) ([3]; 10 uM)	Mean diff, DMSO vs. treatment (log2-transformed values) ([3]; DMSO vs. 1 µM)	Mean diff, DMSO vs. treatment (log2-transformed values) ([3]; DMSO vs. 5 µM)	Mean diff, DMSO vs. treatment (log2-transformed values) ([3]; DMSO vs. 10 uM)	Geometric mean of ratios (paired t tests, Treatment vs Control = 100) [1]
COc1ccc(/C=C2\CC(N)C/C(=C\c3ccc(OC)c(OC)c3)C2=O)cc1OC (stereo not drawn) [RUN-81]	-11.53	88.47	0.96	0.99	2.079	0.02701	2.509	0.216	3.74	0.2168	-0.02701	-0.216	-0.2168	–
COc1ccc(/C=C2\CC(NC(=O)C3CCCC3)C/C(=C\c3ccc(OC)c(OC)c3)C2=O)cc1OC (stereo not drawn) [RUN-89]	–	88.39	1.09	1.13	1.977	0.1287	1.754	0.9716	2.213	1.744	-0.1287	-0.9716	-1.744	-11.61
COc1ccc(/C=C2\CC(NC(=O)c3ccccn3)C/C(=C\c3ccc(OC)c(OC)c3)C2=O)cc1OC (stereo not drawn) [RUN-94]	-7.67	92.33	0.97	1.00	2.183	-0.07708	1.118	1.607	2.807	1.15	0.07708	-1.607	-1.15	–
